Experimental data from PMC5315738 (Clinical Pharmacokinetics, 2016).
Like-named read-outs stand apart in the source and are kept apart here.

How the values were obtained:
human serum albumin = settings: 45 g/L albumin, in vitro; cited from earlier work
[1] = cited from earlier work
[2] = human; cited from earlier work
[3] = test system: cytochrome P450 (CYP) isoenzymes; settings: human hepatocytes and human liver microsomes; ref Boehringer Ingelheim unpublished data, 26; cited from earlier work
[4] = test system: OATP, OAT and OCT drug transporters; settings: transfected HEK293 cell lines; cited from earlier work
[5] = test system: EGFR, HER2, ErbB4 phosphorylation and ErbB3 transphosphorylation; settings: wide variety of cell lines; cited from earlier work
[6] = PopPK, cited from earlier work
[7] = in vitro and in vivo toxicology studies; cited from earlier work
P-gp [8] = settings: read-out: inhibition constant (K i), digoxin transport; cited from earlier work
[9] = type: in vivo; settings: human, plasma, oral
HER2 = settings: HER2, cell-free; cited from earlier work
[10] = cited from earlier work; remark: listed apart in the source
[11] = cited from earlier work; remark: listed apart in the source
[12] = all animal species (rabbits, rats, minipigs and mice), 0.05–0.5 μM; cited from earlier work
ErbB4 = settings: ErbB4, cell-free; cited from earlier work
[13] = cited from earlier work; remark: listed apart in the source
[14] = mouse; ref Boehringer Ingelheim unpublished data, 25, 28; cited from earlier work
[15] = rabbit; ref Boehringer Ingelheim unpublished data, 25, 28; cited from earlier work
[16] = a P-gp substrate; cited from earlier work
BCRP = settings: in vitro; cited from earlier work
[17] = cited from earlier work; remark: listed apart in the source
[18] = cited from earlier work; remark: listed apart in the source
[19] = after a high-fat, high-caloric meal; cited from earlier work
[20] = cited from earlier work; remark: listed apart in the source
[21] = cited from earlier work; for V z/F, gMean / gMean terminal half-life: 10–100 mg doses
[22] = minipigs, cited from earlier work
[23] = LUX-Lung 3, cited from earlier work
P-gp [24] = settings: Caco-2 monolayers and human P-gp-expressing LLC-PK1 cells; cited from earlier work
[25] = physiological pH range of 1–7.5; cited from earlier work
[26] = cited from earlier work; remark: listed apart in the source
[27] = afatinib 20 mg, ritonavir 200 mg twice daily administered 1 h before afatinib, healthy subjects

In the case of CN(C)C/C=C/C(=O)Nc1cc2c(Nc3ccc(F)c(Cl)c3)ncnc2cc1O[C@H]1CCOC1 [afatinib dimaleate], the “binding to isolated human serum albumin” value (human serum albumin) is listed as 79.6%, the “dose recovered in the urine” value ([1]; within 216 h after oral dose of 15 mg [14C]-radiolabelled afatinib dimaleate) is listed as 4.29% and the “dose recovered in the faeces” value ([1]; within 312 h after oral dose of 15 mg [14C]-radiolabelled afatinib dimaleate) is listed as 85.4%.

In the case of CN(C)CC=CC(=O)Nc1cc2c(Nc3ccc(F)c(Cl)c3)ncnc2cc1O[C@H]1CCOC1 [afatinib, N-[4-[(3-chloro-4-fluorophenyl)amino]-7-[[(3S)-tetrahydro-3-furanyl]oxy]-6-quinazolinyl]-4-(dimethylamino)-2-butenamide], the plasma protein bound [2] is given as “approximately 95%”, the “potential to inhibit or induce CYP isoenzymes” value [3] is given as “low potential to inhibit or induce” and the “in vitro transport of afatinib by OATP, OAT, OCT” value [4] is given as “no relevant in vitro transport”. The “potency of inhibition of phosphorylation in cells” value [5] was “low nanomolar range”, the “increase in exposure for CLCR 43 mL/min” value ([6]; 2.5th percentile) was 27.8% and the “increase in exposure in female patients” value ([6]; accounting for all other covariate effects) was 15%. For the same compound, the “decrease in exposure for food intake” value ([6]; food intake less than 3 h before or less than 1 h after afatinib administration) was 26%, the genotoxicity [7] was “no evidence of genotoxicity” and the Ki (P-gp [8]) was 3.4 µM. For the same compound, the half-life [9] was about 37 h, the “potency to inhibit kinase” value (HER2) was “nanomolar potency” and the “effect of hepatic impairment on plasma protein binding” value [10] was “no effect”. For the same compound, the “decrease of mean time-matched QTcF between baseline and day 14” value ([11]; afatinib 50 mg, over 1–24 h following administration, non-significant) was 0.3 ms, the proarrhythmic potential ([11]; dose of 50 mg) was “does not have proarrhythmic potential” and the “Mean plasma protein binding” value [12] was over 92%. The “potency to inhibit kinase” value (ErbB4) was “nanomolar potency”, the “passive permeability through cell membranes” value [13] was “high passive permeability” and the “excretion of unchanged parent compound” value [14] was over 60%. The “excretion of unchanged parent compound” value [15] was over 87%, the “change in exposure on concomitant administration with sirolimus” value [16] was “did not result in a clinically relevant change in exposure” and the “substrate and inhibitor of the efflux transporter BCRP” value (BCRP) was “substrate and inhibitor”. For the same compound, the “excretion of unchanged parent compound” value ([17]; rat, ref Boehringer Ingelheim unpublished data, 25, 28) was over 50%, the volume of distribution ([17]; rats, intravenous dosing) was 16.2 L/kg and the “effect of renal impairment on plasma protein binding” value [18] was “no effect”. For the same compound, the “increase in AUC in patients with severe renal impairment” value ([18]; severe renal impairment) was “approximately 50%”, the “urinary excretion of afatinib-related radioactivity” value ([1]; ADME study) was under 5% and the “unchanged drug excreted in urine” value ([1]; approximate) was “approximately 5%”. The “reduction of AUC∞ by food” value [19] was about 39%, the “reduction of C max by food” value [19] was “approximately 50%” and the BCS class [20] was “BCS class 1 or 3”. For the same compound, the “time to achieve steady-state” value ([21]; once-daily dosing) was at most 8 days, the “V z/F, gMean” value ([21]; single doses) was 1940 L and the gMean terminal half-life ([21]; single doses) was 21 h. For the same compound, the “Overall drug clearance (CL/F), gMean” value ([21]; single doses) was 1050 mL/min, the “V z/F, gMean” value ([21]; steady state) was 2770 L and the gMean terminal half-life ([21]; steady state) was 37 h. The “Overall drug clearance (CL/F), gMean” value ([21]; steady state) was 898 mL/min, the volume of distribution ([22]; intravenous dosing) was 12.4 L/kg and the “excretion of unchanged parent compound” value ([22]; ref Boehringer Ingelheim unpublished data, 25, 28) was over 72%. For the same compound, the “interpatient variability in exposure (gCV)” value ([23]; day 1 of cycle three) was 67%, the “interpatient variability in exposure (gCV)” value ([23]; day 1 of cycle two) was 85% and the “substrate of the efflux transporter P-gp” value (P-gp [24]) was “P-gp substrate”. The solubility [25] was “highly soluble”, the “increase in afatinib exposure (AUC∞) by ritonavir” value [26, 27] was 48% and the “increase in afatinib exposure (C max) by ritonavir” value [26, 27] was 39%. For the same compound, the “change in afatinib exposure by ritonavir” value ([26]; afatinib 40 mg, ritonavir taken concomitantly or 6 h after afatinib) was “did not relevantly change”.
